Test results reported in BigSolDB 2.1.

C[C@@H]1CC[C@@]2(OC1)O[C@H]1C[C@H]3[C@@H]4CC=C5C[C@@H](O)CC[C@]5(C)[C@H]4CC[C@]3(C)[C@H]1[C@@H]2C
solubility (mole fraction)
Settings	in n-heptanol	in n-hexanol
300.15 K	–	0.00806
302.26 K	0.0088	–
303.35 K	–	0.00875
305.45 K	0.00959	0.00905
307.65 K	0.0101	–
308.15 K	–	0.00957
309.9 K	0.0106	0.0101
312.12 K	0.0112	0.0107
312.46 K	0.0119	0.0113
313.79 K	–	0.0119
314.11 K	0.0126	–
315.8 K	0.0133	0.0126
317.35 K	–	0.0132
317.75 K	0.014	–
319.26 K	–	0.0139
320.05 K	0.0147	–
320.77 K	–	0.0147
321.07 K	0.0155	–
321.95 K	–	0.0154
323.22 K	0.0163	–
323.95 K	–	0.0161
324.65 K	0.0171	–
325.05 K	–	0.0167
325.35 K	0.0179	–
326.2 K	–	0.0174
327.45 K	0.0188	–
327.95 K	–	0.0181
328.51 K	0.0196	–
329.6 K	0.0202	0.0188
